Assays:
[1] = target: T1, PIKFYVE (Homo sapiens, UniProt Q9Y2I7); assay: PIKFYVE assay (luciferase ADP-Glo kinase assay, Promega); assay type: biochemical
Protocol: The activity of Compounds 1-20 was measured using a PIKFYVE assay (luciferase ADP-Glo kinase assay available from Promega Corp. of Madison, Wis.).
The activity of Compounds 39-90 was also measured using a PIKFYVE assay (luciferase ADP-Glo kinase assay available from Promega Corp. of Madison, Wis.).
The activity of Compounds 93-347 was also measured using a PIKFYVE assay (luciferase ADP-Glo kinase assay available from Promega Corp. of Madison, Wis.).

[2] = target: T1, PIKFYVE; assay: Cell-based Pikfyve inhibition activity assay (EEA1 staining, mean vesicle size in BJ fibroblast cells); settings: Table 4, 4 hours treatment, 3 μM Apilimod = 100% inhibition
Protocol: BJ fibroblast cells were obtained from American Type Cell Culture (ATCC, CRL-2522). The cells were maintained in DMEM (Genesee Scientific, 25-500) supplemented with 10% fetal bovine serum (Genesee Scientific, 25-514) and 1% penicillin-streptomycin (Genesee Scientific, 25-512) at 37° C. in the atmosphere 5% CO2. BJ fibroblasts were plated into black flat clear bottom 96-well plates (Grenier, 655090) at a density of 3×10^3 per well and were allowed to attach in culture for 8-10 hours before drug treatment. Drugs were tested at eleven doses separated by 3 fold from 0.03 nM to 3000 nM in triplicates for 4 hours at 37° C. After 4 hours, treatment media was aspirated and replaced with 4% Paraformaldehyde (Electron Microscopy Science, 15714-S) and cells were fixed at room temperature for 5 minutes. 4% PFA in wells were then discarded and replaced with a blocking buffer consisting of 1×PBS with 0.1% Tween (Sigma-Aldrich, P1754-500), 5% Donkey Serum (Jackson ImmunoResearch, 017-000-121), and 1% BSA (Caisson Labs, B005-50GM) and incubated at room temperature for 30 minutes. Blocking buffer was then discarded and replaced with a primary EEA1 antibody (Fisher Scientific, BD610457) in a 1:1000 dilution and incubated at 4° C. overnight. Following overnight incubation, plates were washed with 1×PBS three times and incubated with secondary antibody Donkey anti-Mouse IgG, Alexa Fluor 555 (Invitrogen, A31570) (1:1000 dilution) for 1 hour at room temperature in the dark. Subsequently cell plates were washed with 1×PBS three times and can be stored at 4° C. if not being proceeding with imaging procedure.
Images were acquired with 20× objective (ImageXpress MicroConfocal, Molecular Devices) creating z-series of 5 planes (5 steps, […]), 16 tiles per well. Images were then analyzed using a custom CellProfiler protocol to obtain mean vesicle size. The mean vesicle size from 16 images was used as the output for each well. The mean vesicle size from 0.5% DMSO treated condition was considered as having no Pikfyve inhibition activity and the 3 μM Apilimod treated condition was considered as having 100% inhibition activity. The mean vesicle size was converted to % inhibition activity and the data was fitted to a dose-response curve using log(inhibitor) vs normalized response-variable slope using GraphPad Prism.

T1 sequence (Q9Y2I7 whole entry): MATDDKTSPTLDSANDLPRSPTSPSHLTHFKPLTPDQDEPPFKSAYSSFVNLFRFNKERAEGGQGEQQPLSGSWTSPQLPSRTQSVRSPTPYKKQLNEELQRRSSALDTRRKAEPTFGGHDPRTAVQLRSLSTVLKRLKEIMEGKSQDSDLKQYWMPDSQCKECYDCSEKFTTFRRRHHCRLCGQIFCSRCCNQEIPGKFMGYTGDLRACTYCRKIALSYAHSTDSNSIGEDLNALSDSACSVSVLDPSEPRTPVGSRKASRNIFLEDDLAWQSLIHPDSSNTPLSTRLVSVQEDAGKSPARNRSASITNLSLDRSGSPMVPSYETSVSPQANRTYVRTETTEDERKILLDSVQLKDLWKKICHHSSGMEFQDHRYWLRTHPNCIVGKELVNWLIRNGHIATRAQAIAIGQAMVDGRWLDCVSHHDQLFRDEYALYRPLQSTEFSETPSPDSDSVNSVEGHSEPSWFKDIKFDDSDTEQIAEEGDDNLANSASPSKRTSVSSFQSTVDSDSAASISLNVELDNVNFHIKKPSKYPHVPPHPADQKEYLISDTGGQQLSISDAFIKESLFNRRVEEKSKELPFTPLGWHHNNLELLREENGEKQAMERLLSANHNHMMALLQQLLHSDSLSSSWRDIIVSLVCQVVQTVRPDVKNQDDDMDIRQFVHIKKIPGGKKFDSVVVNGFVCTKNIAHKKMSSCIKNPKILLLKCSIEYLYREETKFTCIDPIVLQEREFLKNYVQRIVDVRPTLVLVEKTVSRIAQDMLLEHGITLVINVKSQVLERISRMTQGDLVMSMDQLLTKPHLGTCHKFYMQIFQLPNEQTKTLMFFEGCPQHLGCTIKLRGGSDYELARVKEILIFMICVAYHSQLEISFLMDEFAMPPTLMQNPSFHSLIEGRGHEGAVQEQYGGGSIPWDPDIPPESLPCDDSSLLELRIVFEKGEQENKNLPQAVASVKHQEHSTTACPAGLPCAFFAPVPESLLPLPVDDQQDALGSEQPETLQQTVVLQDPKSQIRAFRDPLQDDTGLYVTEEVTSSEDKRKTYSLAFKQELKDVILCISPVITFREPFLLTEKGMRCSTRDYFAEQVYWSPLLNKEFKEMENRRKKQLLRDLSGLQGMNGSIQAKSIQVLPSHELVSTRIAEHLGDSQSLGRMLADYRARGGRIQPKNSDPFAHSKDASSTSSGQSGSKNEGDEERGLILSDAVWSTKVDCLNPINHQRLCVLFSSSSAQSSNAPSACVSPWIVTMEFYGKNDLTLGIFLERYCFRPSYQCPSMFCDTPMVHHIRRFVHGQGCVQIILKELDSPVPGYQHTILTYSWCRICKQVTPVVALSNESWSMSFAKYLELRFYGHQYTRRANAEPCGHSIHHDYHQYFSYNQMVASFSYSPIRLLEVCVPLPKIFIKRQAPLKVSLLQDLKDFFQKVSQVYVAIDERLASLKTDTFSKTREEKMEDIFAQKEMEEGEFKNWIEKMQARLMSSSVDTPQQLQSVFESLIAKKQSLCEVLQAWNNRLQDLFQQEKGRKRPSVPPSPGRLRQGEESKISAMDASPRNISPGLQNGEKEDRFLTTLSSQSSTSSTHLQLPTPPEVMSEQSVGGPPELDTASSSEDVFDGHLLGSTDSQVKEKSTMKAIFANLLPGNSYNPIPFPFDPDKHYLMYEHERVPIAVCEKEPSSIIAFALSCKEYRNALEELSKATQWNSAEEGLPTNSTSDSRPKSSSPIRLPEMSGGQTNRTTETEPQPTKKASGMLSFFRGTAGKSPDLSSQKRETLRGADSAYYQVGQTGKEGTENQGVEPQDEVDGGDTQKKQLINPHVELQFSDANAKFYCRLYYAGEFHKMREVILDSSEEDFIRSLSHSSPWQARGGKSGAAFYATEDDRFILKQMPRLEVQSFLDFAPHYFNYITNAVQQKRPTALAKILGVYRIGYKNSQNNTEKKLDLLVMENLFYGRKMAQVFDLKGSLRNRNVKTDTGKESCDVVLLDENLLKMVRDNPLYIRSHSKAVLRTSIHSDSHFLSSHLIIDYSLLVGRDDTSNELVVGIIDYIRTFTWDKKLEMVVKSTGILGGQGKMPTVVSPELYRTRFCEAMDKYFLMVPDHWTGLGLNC

| Structure (SMILES) | IC50 ([1]; Table 3) [nM] | EC50 [2] [nM] | IC50 ([1]; Table 2) [nM] |
| --- | --- | --- | --- |
| COC(CO)c1nc(N2CCOCC2)cc(-n2ccc(-c3cccc(C)c3)n2)n1 (racemic) [Compound 156, 2-methoxy-2-(4-morpholino-6-(3-(m-tolyl)-1H-pyrazol-1-yl)pyrimidin-2-yl)ethan-1-ol] | 3 to 10 | 100 to 500 | – |
| Cc1cccc(-c2ccn(-c3cc(N4CCOCC4)nc(OC[C@@H](O)c4ccccc4)n3)n2)c1 (single isomer, unassigned) [Compound 57] | – | 20 to 100 | < 5 |
| Cc1cccc(-c2ccn(-c3cc(N4CCOCC4)nc(OC[C@H](O)c4ccccc4)n3)n2)c1 (single isomer, unassigned) [Compound 58] | – | 20 to 100 | < 5 |
| COC[C@@H](O)c1nc(N2CCOCC2)cc(-n2ccc(-c3cccc(C)c3)n2)n1 (single isomer, unassigned) [Compound 170] | 3 to 10 | 100 to 500 | – |
| CO[C@H](CO)c1nc(N2CCOCC2)cc(-n2nc(-c3ccccc3)cc2C)n1 (single isomer, unassigned) [Compound 205] | 10 to 100 | 500 to 5000 | – |
| CO[C@H](CO)c1nc(N2CCOCC2)cc(-n2nc(-c3cccc(C)c3)cc2C)n1 (single isomer, unassigned) [Compound 224] | 3 to 10 | 100 to 500 | – |
| CO[C@H](CO)c1nc(N2CCOCC2)cc(-n2ccc(-c3csc4ccccc34)n2)n1 (single isomer, unassigned) [Compound 258] | < 3 | 100 to 500 | – |
| CO[C@@H](CO)c1nc(N2CCOCC2)cc(-n2ccc(-c3csc4ccccc34)n2)n1 (single isomer, unassigned) [Compound 259] | 3 to 10 | 100 to 500 | – |
| COC(CO)c1nc(N2CCOCC2)cc(-n2nc(-c3c[nH]c4ccccc34)cc2C)n1 (single isomer, unassigned) [Compound 260, 2-(4-(3-(1H-indol-3-yl)-5-methyl-1H-pyrazol-1-yl)-6-morpholinopyrimidin-2-yl)-2-methoxyethan-1-ol] | < 3 | < 20 | – |
| CO[C@@H](CO)c1nc(N2CCOCC2)cc(-n2nc(-c3c[nH]c4ccccc34)cc2C)n1 (single isomer, unassigned) [Compound 261] | < 3 | < 20 | – |
| CO[C@H](CO)c1nc(N2CCO[C@@H](C)C2)cc(-n2ccc(-c3cccc(C)c3)n2)n1 (single isomer, unassigned) [Compound 305] | 10 to 100 | 500 to 5000 | – |
| CO[C@@H](CO)c1nc(N2CCO[C@@H](C)C2)cc(-n2ccc(-c3cccc(C)c3)n2)n1 (single isomer, unassigned) [Compound 306] | 100 to 5000 | > 5000 | – |
| CO[C@H](CO)c1nc(N2CCO[C@H](C)C2)cc(-n2ccc(-c3cccc(C)c3)n2)n1 (single isomer, unassigned) [Compound 307] | 10 to 100 | > 5000 | – |
| CO[C@@H](CO)c1nc(N2CCO[C@H](C)C2)cc(-n2ccc(-c3cccc(C)c3)n2)n1 (single isomer, unassigned) [Compound 308] | 10 to 100 | 500 to 5000 | – |
| Cc1cccc(-c2ccn(-c3cc(N4CCOCC4)nc([C@@H](CO)OC(F)F)n3)n2)c1 (single isomer, unassigned) [Compound 309] | 3 to 10 | 500 to 5000 | – |
| Cc1cccc(-c2ccn(-c3cc(N4CCOCC4)nc([C@H](CO)OC(F)F)n3)n2)c1 (single isomer, unassigned) [Compound 310] | 10 to 100 | 500 to 5000 | – |
| CCO[C@H](CO)c1nc(N2CCOCC2)cc(-n2ccc(-c3cccc(C)c3)n2)n1 (single isomer, unassigned) [Compound 311] | 3 to 10 | 100 to 500 | – |
| CCO[C@@H](CO)c1nc(N2CCOCC2)cc(-n2ccc(-c3cccc(C)c3)n2)n1 (single isomer, unassigned) [Compound 312] | 3 to 10 | 100 to 500 | – |
| Cc1cccc(-c2cc([C@H](C)O)n(-c3cc(N4CCOCC4)nc(OCCc4cnn(C)c4)n3)n2)c1 (single isomer, unassigned) [Compound 313] | < 3 | < 20 | – |
| Cc1cccc(-c2cc([C@@H](C)O)n(-c3cc(N4CCOCC4)nc(OCCc4cnn(C)c4)n3)n2)c1 (single isomer, unassigned) [Compound 314] | < 3 | < 20 | – |

| Structure (SMILES) | IC50 ([1]; Table 3) [nM] | EC50 [2] [nM] | IC50 ([1]; Table 2) [nM] |
| --- | --- | --- | --- |
| C[C@@H](O)c1cccc(-c2ccn(-c3cc(N4CCOCC4)nc(OCCc4cnn(C)c4)n3)n2)c1 (single isomer, unassigned) [Compound 315] | < 3 | < 20 | – |
| C[C@H](O)c1cccc(-c2ccn(-c3cc(N4CCOCC4)nc(OCCc4cnn(C)c4)n3)n2)c1 (single isomer, unassigned) [Compound 316] | 3 to 10 | 20 to 100 | – |
| CO[C@H](CO)c1nc(N2CCOCC2)cc(-n2ccc(-c3c[nH]c4ccccc34)n2)n1 (single isomer, unassigned) [Compound 318] | < 3 | < 20 | – |
| CO[C@@H](CO)c1nc(N2CCOCC2)cc(-n2ccc(-c3c[nH]c4ccccc34)n2)n1 (single isomer, unassigned) [Compound 319] | < 3 | < 20 | – |
| CO[C@H](CO)c1nc(N2CCOCC2)cc(-n2ccc(-c3cn(C)c4ccccc34)n2)n1 (single isomer, unassigned) [Compound 320] | 3 to 10 | 20 to 100 | – |
| CO[C@@H](CO)c1nc(N2CCOCC2)cc(-n2ccc(-c3cn(C)c4ccccc34)n2)n1 (single isomer, unassigned) [Compound 321] | 3 to 10 | 500 to 5000 | – |
| CC[C@@H](OC)c1nc(N2CCOCC2)cc(-n2ccc(-c3cccc(C)c3)n2)n1 (single isomer, unassigned) [Compound 322] | 3 to 10 | 500 to 5000 | – |
| CC[C@H](OC)c1nc(N2CCOCC2)cc(-n2ccc(-c3cccc(C)c3)n2)n1 (single isomer, unassigned) [Compound 323] | 10 to 100 | 500 to 5000 | – |
| Cc1cccc(-c2ccn(-c3cc(N4CCOCC4)nc([C@@H]4COCCO4)n3)n2)c1 (single isomer, unassigned) [Compound 324] | 10 to 100 | 500 to 5000 | – |
| Cc1cccc(-c2ccn(-c3cc(N4CCOCC4)nc([C@H]4COCCO4)n3)n2)c1 (single isomer, unassigned) [Compound 325] | 10 to 100 | 500 to 5000 | – |
| Cc1cccc(-c2ccn(-c3cc(N4CCOCC4)nc([C@H]4CCCO4)n3)n2)c1 (single isomer, unassigned) [Compound 327] | 3 to 10 | 500 to 5000 | – |
| Cc1cccc(-c2ccn(-c3cc(N4CCOCC4)nc([C@@H]4CCCO4)n3)n2)c1 (single isomer, unassigned) [Compound 328] | 3 to 10 | > 5000 | – |
| Cc1cccc(-c2ccn(-c3cc(N4CCOCC4)nc([C@H]4CCOC4)n3)n2)c1 (single isomer, unassigned) [Compound 329] | 3 to 10 | > 5000 | – |
| Cc1cccc(-c2ccn(-c3cc(N4CCOCC4)nc([C@@H]4CCOC4)n3)n2)c1 (single isomer, unassigned) [Compound 330] | 3 to 10 | > 5000 | – |
| CO[C@@H](C)c1cccc(-c2ccn(-c3cc(N4CCOCC4)nc(OCCc4cnn(C)c4)n3)n2)c1 (single isomer, unassigned) [Compound 341] | < 3 | < 20 | – |
| Cc1cc(-c2c[nH]c3ccccc23)nn1-c1cc(N2CCOCC2)nc(C2COCCO2)n1 (single isomer, unassigned) [Compound 344] | < 3 | < 20 | – |
| Cc1cc(-c2c[nH]c3ccccc23)nn1-c1cc(N2CCOCC2)nc(C2COCCO2)n1 (single isomer, unassigned) [Compound 345] | < 3 | < 20 | – |
| Cc1cccc(-c2ccn(-c3cc(N4CCOCC4)nc(CCc4ncccn4)n3)n2)c1 [Compound 43] | – | 20 to 100 | < 5 |
| COc1cccc(-c2ccn(-c3cc(N4CCOCC4)nc(N)n3)n2)c1 [Compound 44, 4-(3-(3-methoxyphenyl)-1H-pyrazol-1-yl)-6-morpholino-pyrimidin-2-amine] | – | 100 to 500 | < 5 |
| Cc1cccc(-c2ccn(-c3cc(N4CCOCC4)nc(OCc4cccnn4)n3)n2)c1 [Compound 54, 4-(2-(pyridazin-3-ylmethoxy)-6-(3-(m-tolyl)-1H-pyrazol-1-yl)pyrimidin-4-yl)morpholine] | – | 20 to 100 | < 5 |
